# Measured values taken from patent US12290527B2, “Compositions and methods for reducing major thrombotic events in cancer patients” (Beth Israel Deaconess Medical Center, Inc., priority 2018, dated 2025).
# Entries after “also recorded” stand apart in the source; their conditions may differ.
# Legend:
# [1] = tested on: platelet-dependent thrombin generation; assay: Platelet-dependent thrombin generation assay on patient plasma; format: in vivo, human; settings: follow-up vs baseline
# Excerpt: The platelet-dependent thrombin generation assay measures thrombin generation following platelet activation and requires PDI. […] Correlation between PDI inhibitory activity in plasma and platelet-dependent thrombin generation confirmed the PDI-dependency of thrombin generation (Spearman coefficient 0.29, P=0.004). There was significant correlation between increased plasma PDI inhibitory activity and decreased thrombin generation (Pearson correlation coefficient 0.45, P=0.002)
# Platelet-dependent thrombin generation was performed according to previously published methodology (Stopa J D et al., JCI insight. 2017;2(1):e89373; Jurk K et al. J Thromb Haemost. 2011; 9(11):2278-90). Briefly, platelet-free plasma was mixed with donor platelet-rich plasma diluted to a platelet concentration of 250,000 platelets per microliter in the presence of 5 mM GPRP and 6 mM CaCl2), and then stimulated with 0.1 U/ml of thrombin. Samples were incubated for 90 min at room temperature with rotation, and thrombin levels were measured using cleavage of a fluorescent thrombin-specific substrate (Haemtech SN-20 Boc-L-FPR-ANSNH-C2H5) by excitation at 352 nm and emission as a function of time at 470 nm. Rates of substrate cleavage were used to calculate the concentration of thrombin in each sample.
# [2] = isoquercetin at 500 mg; prior pharmacokinetic studies; cited from earlier work
# [3] = tested on: patients with advanced cancer; assay: Safety: hemorrhage (ISTH) and toxicities (CTCAE) in phase II trial; format: in vivo, human
# Excerpt: (§1) The ratio of components in the capsules was: 1:0.25:0.02 of isoquercetin, vitamin C, and vitamin B3, respectively. It is noted that folic acid can optionally be present in the isoquercetin composition. Isoquercetin was taken orally daily for a total of 56 days. The first 5 patients of each cohort were monitored for evidence of toxicity prior (≥1 grade 3 or higher toxicity possibly related to isoquercetin) prior to the subsequent enrollment of 25 patients into each cohort. Patients were monitored for development of a venous thromboembolic event throughout the study including a bilateral lower extremity duplex ultrasound at end of study visit (day 56±5). Participants were taken off study if they developed an intercurrent illness that prevented further administration; unacceptable adverse events; poor compliance; participant preference; VTE or condition requiring therapeutic anticoagulation; requirement for prophylactic anticoagulation for >7 consecutive days; or grade ≥3 hemorrhage or otherwise met the ISTH criteria for major hemorrhage. Doses were held for grade 2 hemorrhage or platelet count <50×10^9/L.
# The primary VTE endpoint included any symptomatic proximal or distal deep vein thrombosis, symptomatic PE or fatal PE diagnosed by autopsy, asymptomatic proximal DVT diagnosed by protocol-specified ultrasound at end of study. All suspected VTE were assessed by an independent adjudication committee that included central radiologic review of images. Criteria for new VTE included any of the following: A) A new noncompressibility of lower extremity deep venous segments by compression ultrasound (distal lower extremity thrombus qualified for primary VTE endpoint only if symptomatic). B) Intraluminal defects in two or more views on pulmonary angiography, sudden contrast cut-off of one or more vessels greater than 2.5 mm in diameter on a pulmonary angiogram; a high probability VQ lung scan showing one or more segmental perfusion defects with corresponding normal ventilation (mismatch defect); or abnormal spiral CT showing thrombus in pulmonary vessels (subsegmental or larger). All other venous or arterial events were recorded and analyzed as secondary endpoints. Criteria for major hemorrhage was according to ISTH definition (Schulman S, and Kearon C. J Thromb Haemost. 2005; 3(4):692-4). All toxicities were graded according NCI Common Terminology Criteria for Adverse Events (CTCAE). Study oversight was performed by an independent Data Safety Monitoring Committee at Dana Farber Harvard Cancer Center.
# [4] = tested on: patients with advanced cancer; assay: Venous thromboembolism monitoring (clinical and end-of-study lower extremity ultrasound); format: in vivo, human
# Excerpt: Patients were monitored for the development of venous thromboembolism (VTE) throughout the two months of the study including an end-of-study bilateral lower extremity ultrasound to evaluate for asymptomatic lower extremity proximal DVT. Shown in FIG. 3A-FIG. 3D is the proportion of patients remaining free of VTE through the course of the study. […] There were three secondary VTE endpoints recorded in cohort A (FIG. 3C, two incidental catheter-associated DVT diagnosed with re-staging imaging and one lower extremity superficial venous clot). In cohort B (FIG. 3D), there were two secondary endpoint thrombotic events recorded (superficial venous clot of the lower extremity and incidental thrombosis observed in a lingular pulmonary vein on re-staging imaging).
# as §1
# The primary VTE endpoint included any symptomatic proximal or distal deep vein thrombosis, symptomatic PE or fatal PE diagnosed by autopsy, asymptomatic proximal DVT diagnosed by protocol-specified ultrasound at end of study. All suspected VTE were assessed by an independent adjudication committee that included central radiologic review of images. Criteria for new VTE included any of the following: A) A new noncompressibility of lower extremity deep venous segments by compression ultrasound (distal lower extremity thrombus qualified for primary VTE endpoint only if symptomatic). […] All other venous or arterial events were recorded and analyzed as secondary endpoints. […]
# D-dimer = assay: Plasma D-dimer (Asserachrom D-Di ELISA), phase II trial in cancer patients; format: in vivo, human
# Description: A multi-center, multi-dose phase II trial was conducted to evaluate, among other markers and readouts, the efficacy of targeting protein disulfide isomerase (PDI) along with soluble P-selectin with isoquercetin to reduce the hypercoagulability in cancer patients at high risk for venous thromboembolism (VTE). Patients received isoquercetin at 500 mg (cohort A) or 1000 mg (cohort B) daily for 56 days with laboratory assays at the beginning and at completion of study (along with duplex ultrasound). The primary endpoint was a reduction in D-dimer and the primary clinical endpoint included pulmonary embolism or proximal deep vein thrombosis, and also included measuring the level of soluble P-selectin. (See, Zwicker et al., JCI Insight.2019; 4(4):e125851.)
# The primary endpoint of the study was comparison of plasma D-dimer at baseline and end-of-study. D-dimer is liberated from cross-linked fibrin following […] degradation. D-dimer is the most validated and commonly utilized laboratory assay in the clinic to detect deep vein thrombosis. In patients with advanced cancer, plasma D-dimer levels are commonly elevated and correlate with an increased risk for developing of VTE.
# Participants were sequentially enrolled into two dosing cohorts: Cohort A (isoquercetin 500 mg) and Cohort B (isoquercetin 1000 mg). Isoquercetin was supplied in capsules containing 250 mg of isoquercetin each with 10 mg added as overage to guarantee a minimum of 250 mg of isoquercetin per capsule with added Vitamin C and Vitamin B3 by Quercegen Pharmaceuticals LLC (Boston, MA). The drug product capsules were manufactured by Pharmavize NV, Kleinmoer 4, 9030 Mariakerke, Belgium.
# The ratio of components in the capsules was: 1:0.25:0.02 of isoquercetin, vitamin C, and vitamin B3, respectively. It is noted that folic acid can optionally be present in the isoquercetin composition. Isoquercetin was taken orally daily for a total of 56 days. The first 5 patients of each cohort were monitored for evidence of toxicity prior (≥1 grade 3 or higher toxicity possibly related to isoquercetin) prior to the subsequent enrollment of 25 patients into each cohort. Patients were monitored for development of a venous thromboembolic event throughout the study including a bilateral lower extremity duplex ultrasound at end of study visit (day 56±5). […]
# Blood was drawn by peripheral venipuncture into 3.2% citrate. […] D-dimer was measured centrally using Asserrachrom D-Di ELISA, considered the reference standard assay for D-dimer (Stago, France) (Meyer G. et al., Blood Coagulation & Fibrinolysis. 1998; 9(7):603-8.).
# soluble P-selectin [5] = assay: Soluble P-selectin (CD62) in plasma, commercial ELISA; format: in vivo, human; settings: for median change in soluble P-selectin: end-of-treatment vs baseline plasma
# Excerpt: P-selectin is a transmembrane adhesion receptor that is externalized from α-granules in platelets and Weibel-Palade bodies in endothelial cells following cell activation. P-selectin can be shed from the cell surface following externalization and P-selectin shedding is increased in cardiovascular disease, sepsis, and cancer. […] As PDI inhibition alters platelet and endothelial reactivity, baseline versus end-of-treatment plasma levels of soluble P-selectin following treatment with isoquercetin was compared. As shown in FIG. 6A-FIG. 6B, there was no change in soluble P-selectin in Cohort A (FIG. 6A) (median change −0.3%, P=0.26).
# (§2) Measurement of soluble P-selectin (CD62) was performed centrally using a commercial ELISA (Invitrogen/ThermoFisher Scientific #BMS219-4) and prothrombin time and partial thromboplastin time according to standard manufacturer protocol on a Sago Start 4 instrument (STA-Neoplastine CI Plus 5 #00606, STA-PTT Automate 5 #00595).
# [6] = tested on: prothrombin time and partial thromboplastin time; assay: Standard coagulation assays (prothrombin time, partial thromboplastin time); format: in vivo, human
# Description: as §2
# soluble P-selectin [7] = settings: standard anticoagulants compared in words; cited from earlier work
# [8] = Cohort A, isoquercetin 500 mg daily
# [9] = Cohort B, isoquercetin 1000 mg daily
smiles,measurement,setting,value
"O=c1c(O[C@@H]2O[C@H](CO)[C@@H](O)[C@H](O)[C@H]2O)c(-c2ccc(O)c(O)c2)oc2cc(O)cc(O)c12 [isoquercetin, 2-(3,4-Dihydroxyphenyl)-5,7-dihydroxy-3-[(2S,3R,4S,5S,6R)-3,4,5-trihydroxy-6-(hydroxymethyl)oxan-2-yl]oxychromen-4-one]",median change in platelet-dependent thrombin generation,[1]; [8],−31.1%
same,median change in platelet-dependent thrombin generation,[1]; [9],−57.2%
same,plasma concentrations relative to IC50 of PDI activity in vitro,[2],fall below the inhibitory concentration (IC50) of PDI activity in vitro
same,patients developing grade 1 epistaxis,"[3]; Cohort A, 500 mg daily",One
same,patients developing non-severe gastrointestinal bleeding,"[3]; Cohort B, 1000 mg daily, grade 1 hemorrhoid and grade 2 rectal bleeding",two
same,severe adverse events (grade 3 or 4) attributed to isoquercetin,[3]; both cohorts,no severe adverse events (grade 3 or 4); also recorded: No grade 3 or 4 toxicities were reported
same,major hemorrhages,"[3]; both cohorts, modified intention-to treat analyses",no major hemorrhages observed
same,most commonly reported toxicities on study,[3]; common toxicities of the concurrent chemotherapeutics,nausea and diarrhea
same,deaths during the 2 months of follow-up,[3]; following initiation of isoquercetin,no deaths reported
same,secondary VTE endpoints recorded,"[4]; Cohort A, 500 mg daily, two catheter-associated DVT, one superficial venous clot",three
same,secondary endpoint thrombotic events recorded,"[4]; Cohort B, 1000 mg daily, superficial venous clot, lingular pulmonary vein thrombosis",two
same,primary VTE endpoint events,"[4]; both cohorts (500 mg and 1000 mg daily), 2-month study",no VTE that met criteria for the primary VTE endpoint; also recorded: no primary VTE endpoints observed
same,"proximal deep vein thrombosis, pulmonary emboli, or major hemorrhage observed","[4]; treated patients, cancer population at higher risk for thrombosis and hemorrhage",none of the following were observed
same,individuals with reduced D-dimer,"D-dimer; Cohort B, 1000 mg daily, paired samples",18 of 22
same,median change in D-dimer,"D-dimer; Cohort B, isoquercetin 1000 mg daily oral, 56 days, baseline vs end-of-study, cancer patients",−21.9%
same,median decrease of D-dimer plasma concentrations,"D-dimer; isoquercetin 1000 mg daily, 56 days, printed as decrease without sign",21.9%
same,reduction of D-dimer levels (in words),"D-dimer; lower dose, isoquercetin 500 mg",did not reduce D-dimer levels
same,median change in soluble P-selectin,soluble P-selectin [5]; [8],−0.3%
same,patients with decreased soluble P-selectin (in words),soluble P-selectin [5]; [9],decreased in all patients except one
same,median change in soluble P-selectin,soluble P-selectin [5]; [9],−57.9%
same,mean PT at 2-months,"[6]; Cohort A, 500 mg daily, baseline 14.0 seconds",14.3 s
same,mean PTT at study completion,"[6]; Cohort A, 500 mg daily, baseline 49.6 seconds",45.6 s
same,mean PT at 2-months,"[6]; Cohort B, 1000 mg daily, baseline 15.1 seconds",15.2 s
same,mean PTT at 2-months,"[6]; Cohort B, 1000 mg daily, baseline 54.2 seconds",51.9 s
same,effects in standard coagulation assays (in words),"[6]; following administration of isoquercetin, both cohorts",no effects detected
O=C(NC[C@H]1CN(c2ccc(N3CCOCC3=O)cc2)C(=O)O1)c1ccc(Cl)s1 [rivaroxaban],lowering of soluble P-selectin levels (activity shared with isoquercetin or not),soluble P-selectin [7],not shared
CC(=O)CC(c1ccccc1)c1c(O)c2ccccc2oc1=O (stereo not drawn) [warfarin],lowering of soluble P-selectin levels (activity shared with isoquercetin or not),soluble P-selectin [7],not shared
